# Assay results: patent US20050153932A1, “Controlled muscle relaxation” (priority 2003, published 2005)
# Several values for one entry are separate records, joined by “and”; a condition that tells them apart may be missing. Equal values may be shown once. Read-outs that look alike come from different tables or passages of the source.
# Experiments:
# [1] = tested on: M. adductor pollicis contractions; test: Rocuronium-induced block of M. adductor pollicis contractions (TOF stimulation) and effect of Org 25969 in anaesthetised Rhesus monkeys; format: in vivo, Rhesus monkey
# Description: (§1) • T1: first twitch: amplitude of the first response to TOF stimulation, expressed as percentage of control T1 (%). • T4/T1 ratio: the ratio of T4 over T1 (within one TOF stimulus) expressed as decimals.
# Female Rhesus monkeys were starved overnight and sedated with 10 mg·kg^−1 ketamine i.m., followed by i.v. injection of 25 mg·kg^−1 pentobarbitone sodium and subsequent infusion of 5-10 mg·kg^−1hr^−1. The animals were intubated and ventilated with a mixture of oxygen and nitrous oxide (2:3), using a ventilator. The expired CO2 level was measured using a capnograph. The tidal volume was adjusted to obtain a CO2 level of approximately 4.5%. Oxygen saturation was measured via a probe on the earlobe using a pulse oxymeter. Blood pressure was measured non-invasively with a cuff placed on the tail. The ECG was recorded and heart rate was measured. Rectal temperature was measured and body temperature was kept at 37-38° C. using a heating blanket. The right hand and right arm of the animal were fixed to a frame using surgical tape. The thumb was connected to a force transducer. A pre-load of 200-500 mN was applied. Two needle electrode were placed near the N. ulnaris and the nerve was stimulated with train-of-four pulses (pulse duration: 2 ms, train-frequency: 0.07 Hz). At the end of the experiment, the animals were allowed to recover from anesthesia. Appropriate recovery care was given to all animals. Two groups of monkeys were used to assess the reversal effects of Org 25969 against the neuromuscular blocking agents rocuronium (Esmeron®/Zemuron®) and vecuronium (Norcuron®). In the first group, animals initially received an intravenous bolus injection of a 1×ED90 dose of rocuronium bromide to induce neuromuscular block, followed by spontaneous recovery of the twitches. After complete recovery of the twitches, each group received a second and larger 5×ED90 dose of rocuronium followed by spontaneous recovery in one subgroup, whereas the other subgroup received an intravenous bolus dose of 1150 nmol·kg^−1 Org 25969 as soon as all twitches had disappeared. In the vecuronium groups of animals, the same protocol was used, but rocuronium was replaced by vecuronium. Rocuronium bromide and vecuronium bromide were dissolved in a citric acid/phosphate/mannitol buffer (pH 4.0). Org 25969 was dissolved in saline.
# [2] = Org 25969 with pancuronium; cited from earlier work
# [3] = tested on: M. gastrocnemius contractions; format: in vivo, guinea pig; conditions: for 1× ED90 dose: rocuronium i.v. bolus, established in each animal
# Description: Male healthy mature guinea pigs were anesthetised with 30 mg·kg^−1 pentobarbitone and 900 mg·kg^−1 urethane i.p. The guinea pigs were artificially ventilated with room air (4.5-5.5 ml; 50-60 strokes/min). Catheters were placed in both jugular veins and a third catheter was placed in the carotid artery for continuous monitoring of arterial blood pressure and the taking of blood samples for blood gas analysis.
# Heart rate was derived from the blood pressure signal.
# Body temperature was maintained at 37-38° C. using an electrical heating pad.
# The gastrocnemius muscle was dissected free from surrounding muscles and set up for recording twitch tension using a force transducer. A resting tension of 250-300 mN was applied to the muscle. A stimulation electrode was placed around the sciatic nerve, which was crushed centrally to the electrode to prevent reflex responses. The gastrocnemius muscle was stimulated indirectly via the sciatic nerve with rectangular pulses of 0.5 ms duration at 10 s (0.1 Hz) intervals at a supra maximal voltage using a Grass S88 Stimulator.
# Animals were allowed to stabilise for […] before the start of the experiment. Firstly, the 1×ED90 blocking dose of rocuronium was established in each animal followed by complete spontaneous recovery of muscle contractions. After at least 30 minutes, all animals received a 10×ED90 blocking dose of rocuronium by intravenous bolus injection. One minute after bolus injection of rocuronium, the animals received either 2300 nmol·kg^−1 Org 25969 in saline or an equivalent volume of saline. Time to 25%, 50%, 75% and 90% recovery of twitch height was measured from the moment of injection of Org 25969 or saline, respectively.
# Rocuronium bromide was dissolved in a pH 4.0 citric acid/phosphate/mannitol buffer. Org 25969 was dissolved in saline.
# [4] = tested on: deep block induced by rocuronium; format: in vivo, human
# Description: A simple method of monitoring neuromuscular function is the train-of-four (TOF) technique using an acceleromyograph (TOF Watch®). Four electrical stimuli each 0.5 seconds apart (and for instance applied at 12-15 seconds intervals) are applied along the course of the ulnar nerve in the arm. Stimulation of the ulnar nerve causes contraction of the adductor pollicis muscle and movement of the thumb. Response can be noted visually or, more accurately, by placing a finger lightly on the surface of the hand over the muscle to feel the contraction. A baseline response check is done to ensure that there are four muscle twitches in response to the four stimuli. Normal baseline and full recovery is indicated by four twitches of equal strenght. As the number of acetylcholine receptors occupied by NMBAs increases, the number of twitches decreases, no twitches indicating total paralysis.
# as §1
# 10 Volunteers, which were enrolled in a phase 1 trial with the objective to investigate the safety, pharmacokinetics and efficacy of Org 25969, received general anesthesia using i.v. administration of remifentanil followed by propofol (Target controlled Infusion—Diprifusor®) for induction and maintenance. After induction of anesthesia and set-up of the TOF-Watch®SX subjects received a i.v. bolus dose of 0.6 mg·kg^−1 rocuronium bromide (Esmeron®) given by hand over 5 seconds. Between the administration of rocuronium and the administration of Org 25969, a laryngeal mask was applied or tracheal intubation was performed to ventilate the subjects. At 3 minutes after rocuronium bromide administration (i.e. deep block) either placebo (commercially physiological salt solution, 0.9% sodium chloride) or Org 25969 (25 mg/ml) were given as a bolus dose into a fast running infusion in the forearm. Six dose levels of Org 25969 were given to these 10 volunteers. Neuromuscular block was measured using the TOF-Watch-SX® acceleromyograph for at least 90 minutes after administration of Org 25969 or placebo.
# [5] = Org 25969 with vecuronium; cited from earlier work
# [6] = 5× ED90 rocuronium + 1150 nmol · kg^−1 Org 25969 i.v.
# [7] = 5× ED90 rocuronium in the subgroup given 1150 nmol · kg^−1 Org 25969 once all twitches had disappeared
# [8] = 10× ED90 rocuronium, 2300 nmol · kg^−1 Org 25969 i.v. one minute later (group 2), time from injection of Org 25969
# [9] = 1× ED90 rocuronium, spontaneous recovery
# [10] = 5× ED90 rocuronium, spontaneous recovery
# [11] = 5× ED90 rocuronium, spontaneous recovery subgroup
# [12] = 1× ED90 rocuronium i.v., spontaneous recovery, group 1
# [13] = 1× ED90 rocuronium i.v., spontaneous recovery, group 2
# [14] = 10× ED90 rocuronium i.v. bolus, group 1
# [15] = 10× ED90 rocuronium i.v. bolus, group 2
# [16] = 10× ED90 rocuronium, saline one minute later (group 1), time from injection of saline
smiles,measurement,setting,value
"O=C(O)CCSC[C@H]1O[C@@H]2O[C@H]3[C@H](O)[C@@H](O)[C@@H](O[C@H]4[C@H](O)[C@@H](O)[C@@H](O[C@H]5[C@H](O)[C@@H](O)[C@@H](O[C@H]6[C@H](O)[C@@H](O)[C@@H](O[C@H]7[C@H](O)[C@@H](O)[C@@H](O[C@H]8[C@H](O)[C@@H](O)[C@@H](O[C@H]9[C@H](O)[C@@H](O)[C@@H](O[C@H]1[C@H](O)[C@H]2O)O[C@@H]9CSCCC(=O)O)O[C@@H]8CSCCC(=O)O)O[C@@H]7CSCCC(=O)O)O[C@@H]6CSCCC(=O)O)O[C@@H]5CSCCC(=O)O)O[C@@H]4CSCCC(=O)O)O[C@@H]3CSCCC(=O)O [Org 25969, 6-per-deoxy-6-per-(2-carboxyethyl)thio-γ-cyclodextrin]",effectiveness against rocuronium compared with vecuronium (in words),"[1]; 1150 nmol·kg^−1 Org 25969, 5×ED90 of either blocker",more effective against a 5×ED90 dose of rocuronium
same,reversal of rocuronium-induced neuromuscular block (in words),[1]; 1150 nmol·kg^−1 Org 25969 i.v. after 5×ED90 rocuronium,rapid reversal
same,0.50-0.90 TOF ratio interval,[1]; [6],4.0 ± 0.9 min
same,25-75% recovery index,[1]; [6],3.1 ± 0.8 min
same,time to 25% recovery of T1,[1]; [6],3.8 ± 0.7 min
same,time to 90% recovery of T1,[1]; [6],9.5 ± 1.9 min
same,time to TOF ratio 0.90,[1]; [6],7.9 ± 1.8 min
same,block,[1]; [7],100.0 ± 0.0%
same,onset time,[1]; [7],0.5 ± 0.1 min
same,affinity (association constant),[2],about 2.6.10^6 M^−1
same,25-75% recovery index,"[3]; 10× ED90 rocuronium, 2300 nmol · kg^−1 Org 25969 i.v. one minute later (group 2)",1.3 min and 1.3 ± 0.4 min
same,time to 25% recovery,[3]; [8],3.7 ± 0.4 min
same,time to 90% recovery,[3]; [8],8.5 min and 8.5 ± 2.2 min
same,Time to TOF ratio 0.9,"[4]; Org 25969 0.1 mg · kg^−1 i.v. bolus 3 minutes after 0.6 mg·kg^−1 rocuronium bromide, individual volunteer",43 min
same,Time to TOF ratio 0.9,"[4]; Org 25969 0.5 mg · kg^−1 i.v. bolus 3 minutes after 0.6 mg·kg^−1 rocuronium bromide, individual volunteer",71 min
same,Time to TOF ratio 0.9,"[4]; Org 25969 1.0 mg · kg^−1 i.v. bolus 3 minutes after 0.6 mg·kg^−1 rocuronium bromide, individual volunteers",23 min and 31 min
same,Time to TOF ratio 0.9,"[4]; Org 25969 2.0 mg · kg^−1 i.v. bolus 3 minutes after 0.6 mg·kg^−1 rocuronium bromide, individual volunteers",13 min and 17 min
same,Time to TOF ratio 0.9,"[4]; Org 25969 4.0 mg · kg^−1 i.v. bolus 3 minutes after 0.6 mg·kg^−1 rocuronium bromide, individual volunteers",2.5 min and 3.2 min
same,Time to TOF ratio 0.9,"[4]; Org 25969 8.0 mg · kg^−1 i.v. bolus 3 minutes after 0.6 mg·kg^−1 rocuronium bromide, individual volunteers",≤ 2 min and 1.0 min and 1.2 min
same,re-curarisation,"[4]; human, in vivo",no signs of re-curarisation
same,affinity (association constant),[5],about 9.10^6 M^−1
"C=CC[N+]1([C@H]2C[C@H]3[C@@H]4CC[C@H]5C[C@H](O)[C@@H](N6CCOCC6)C[C@]5(C)[C@H]4CC[C@]3(C)[C@H]2OC(C)=O)CCCC1 [rocuronium, rocuronium bromide]",onset time,[1]; 1× ED90 rocuronium,1.2 ± 0.0 min
same,0.50-0.90 TOF ratio interval,[1]; [9],2.6 ± 0.2 min
same,25-75% recovery index,[1]; [9],3.3 ± 0.4 min
same,time to 25% recovery of T1,[1]; [9],4.5 ± 0.6 min
same,time to 90% recovery of T1,[1]; [9],9.6 ± 0.9 min
same,time to TOF ratio 0.90,[1]; [9],8.4 ± 0.9 min
same,block,"[1]; 1× ED90 rocuronium, Mean ± SEM, n = 4",93.3 ± 1.9%
same,0.50-0.90 TOF ratio interval,[1]; [10],6.9 ± 0.8 min
same,25-75% recovery index,[1]; [10],6.0 ± 0.6 min
same,time to 25% recovery of T1,[1]; [10],18.5 ± 2.1 min
same,time to 90% recovery of T1,[1]; [10],27.7 ± 3.2 min
same,time to TOF ratio 0.90,[1]; [10],28.2 ± 3.4 min
same,block,[1]; [11],100.0 ± 0.0%
same,onset time,[1]; [11],0.7 ± 0.2 min
same,25-75% recovery index,[3]; [12],3.5 ± 0.4 min
same,max recovery,[3]; [12],101.1 ± 1.3%
same,max recovery after (time),[3]; [12],15.1 ± 2.1 min
same,time to 25% recovery,[3]; [12],5.1 ± 0.7 min
same,time to 90% recovery,[3]; [12],10.7 ± 1.5 min
same,25-75% recovery index,[3]; [13],2.3 ± .5 min
same,max recovery,[3]; [13],101.4 ± 2.8%
same,max recovery after (time),[3]; [13],12.5 ± 1.7 min
same,time to 25% recovery,[3]; [13],3.8 ± 0.5 min
same,time to 90% recovery,[3]; [13],8.7 ± 1.4 min
same,onset time,"[3]; 1× ED90 rocuronium i.v., group 1",2.6 ± 0.3 min
same,max block,"[3]; 1× ED90 rocuronium i.v., group 1, Mean ± SEM, n = 6",89.7 ± 2.4%
same,onset time,"[3]; 1× ED90 rocuronium i.v., group 2",2.1 ± 0.3 min
same,max block,"[3]; 1× ED90 rocuronium i.v., group 2, Mean ± SEM, n = 6",91.0 ± 2.5%
same,max block,[3]; [14],100.0 ± 0.0%
same,onset time,[3]; [14],2.0 ± 0.8 min
same,max block,[3]; [15],100.0 ± 0.0%
same,onset time,[3]; [15],1.7 ± 0.5 min
same,25-75% recovery index,"[3]; 10× ED90 rocuronium, saline one minute later (group 1)",15.9 min and 15.9 ± 4.0 min
same,time to 25% recovery,[3]; [16],47.5 ± 7.0 min
same,time to 90% recovery,[3]; [16],78.3 min and 78.3 ± 15.2 min
same,1× ED90 dose,"[3]; group 1, Mean ± SEM, n = 6",178 ± 22 nmol/kg
same,1× ED90 dose,"[3]; group 2, Mean ± SEM, n = 6",169 ± 15 nmol/kg
same,Time to TOF ratio 0.9,"[4]; 0.6 mg·kg^−1 rocuronium bromide i.v., placebo at 3 minutes, time from placebo, n = 10",35 to 69 min
